# Results: patent US8853412B2, “Pyrrolidinone derivatives as GPR119 modulators for the treatment of diabetes, obesity, dyslipidemia and related disorders” (Sanofi, priority 2012, dated 2014)
# Biological target: T1, human GPR119 (Homo sapiens, UniProt Q8TDV5)
# T1 construct: expressed in transfected cells; host or cells: HEK-293 cell line stably expressing recombinant GPR119
# T1 sequence (Q8TDV5 1-335): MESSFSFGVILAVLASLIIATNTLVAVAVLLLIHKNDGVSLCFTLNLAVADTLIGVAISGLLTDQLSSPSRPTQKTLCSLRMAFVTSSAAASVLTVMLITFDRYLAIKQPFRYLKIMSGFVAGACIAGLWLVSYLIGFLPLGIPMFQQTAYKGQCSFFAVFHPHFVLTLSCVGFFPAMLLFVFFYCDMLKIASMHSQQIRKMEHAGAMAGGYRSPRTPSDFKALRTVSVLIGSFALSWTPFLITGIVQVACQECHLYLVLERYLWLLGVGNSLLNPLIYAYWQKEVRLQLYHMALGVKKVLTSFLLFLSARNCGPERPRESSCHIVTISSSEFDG
# Assay: Functional cellular assay measuring GPR119-mediated cAMP release (HTRF), HEK-293 cells stably expressing recombinant GPR119
# Format: cell-based
# Conditions: cell line expressing human GPR119; cAMP response, 30 minutes at room temperature
# Procedure: Functional Cellular Assays Measuring GPR119-Mediated cAMP Release.
# Compounds of the invention, which are agonists of GPR119, were characterized by functional assays measuring the cAMP response of HEK-293 cell lines stably expressing recombinant GPR119 from man, mouse or rat, or by using a hamster cell line HIT-T15 expressing GPR119 endogenously. The cAMP content was determined using a kit based on homogenous time-resolved fluorescence (HTRF) from Cisbio Corp. (cat. no. 62AM4PEC). For preparation, cells were split into T175 culture flasks and grown to near confluency in medium (DMEM/10% FCS for HEK-293 cells, and F-12K medium/10% horse serum/2.5% FCS for HIT-T15 cells, respectively). Medium was then removed and cells washed with PBS lacking calcium and magnesium ions, followed by proteinase treatment with accutase (Sigma-Aldrich, cat. no. A6964). Detached cells were washed and resuspended in assay buffer (1×HBSS; 20 mM HEPES, 0.1% BSA, 2 mM IBMX) and cellular density determined. They were then diluted to 400000 cells/mL and 25 μL-aliquots dispensed to the wells of 96-well plates. For measurement, 25 μL of test compound in assay buffer was added and incubated for 30 minutes at room temperature. After addition of HTRF reagents diluted in lysis buffer, the plates were incubated for 1 hour, followed by measuring the fluorescence ratio at 665 vs. 620 nm. Potency of the agonists was quantified by determining the concentrations that caused 50% of the maximal response/activation (EC50). See Table 10 for exemplary data obtained using the cell line expressing human GPR119.
row,EC50,Structure (SMILES)
1,9300 nM,O=C1CCc2c(F)cc(N3CC[C@@H](Oc4ccc(OCCN5CCCC5=O)nc4)C3=O)cc21 [Example 2-56]
2,33 nM,O=C1CCc2c(F)cc(N3CC[C@@H](Oc4ccc(OC5CCCOC5)nc4)C3=O)cc21 (stereo partly drawn) [Example 2-78]
3,1980 nM,CCOc1ccc(O[C@H]2CCN(c3cc(F)c4c(c3)C(=O)CC4)C2=O)cn1 [Example 3-21]
4,25 nM,CC(C)CC(C)Oc1ccc(O[C@@H]2CCN(c3cc(F)c4c(c3)C(=O)CC4)C2=O)cn1 (stereo partly drawn) [Example 2-45]
5,141 nM,COCCOc1ccc(O[C@@H]2CCN(c3cc(F)c4c(c3)C(=O)CC4)C2=O)cn1 [Example 2-13]
6,45 nM,"O=C1CCc2c(F)cc(N3CC[C@@H](Oc4ccc(OC5CCOCC5)nc4)C3=O)cc21 [Example 2-07, (R)-1-(7-Fluoro-3-oxo-indan-5-yl)-3-[6-(tetrahydro-pyran-4-yloxy)-pyridin-3-yloxy]-pyrrolidin-2-one]"
7,456 nM,O=C1CCc2c(F)cc(N3CC[C@@H](Oc4ccc(OCCn5cccn5)nc4)C3=O)cc21 [Example 2-21]
8,699 nM,O=C1CCCc2ccc(N3CC[C@@H](Oc4ccc(OCCC5CC5)nc4)C3=O)cc21 [Example 1-10]
9,5590 nM,O=C1CCc2c(F)cc(N3CC[C@@H](Oc4ccc(OCC5CC5)[n+]([O-])c4)C3=O)cc21 [Example 7-01]
10,77 nM,COCC(C)Oc1ccc(O[C@@H]2CCN(c3cc(F)c4c(c3)C(=O)CC4)C2=O)cn1 (stereo partly drawn) [Example 2-05]
11,7 nM,O=C1CCc2c(F)cc(N3CC[C@@H](Oc4ccc(OCC5CCC5)nc4)C3=O)cc21 [Example 2-55]
12,5 nM,O=C1CCc2c(F)cc(N3CC[C@@H](Oc4ccc(OC5CCCC5)nc4)C3=O)cc21 [Example 2-63]
13,1410 nM,O=C1CCc2c(F)cc(N3CC[C@@H](Oc4ccc(OCc5ccncc5)nc4)C3=O)cc21 [Example 2-28]
14,385 nM,CC(C)CCOc1ccc(OC2CCN(c3ccc4c(c3)C(=O)CC4)C2=O)cc1 (stereo not drawn) [Example 1-01]
15,5 nM,CCCOc1ccc(O[C@@H]2CCN(c3cc(F)c4c(c3)C(=O)CC4)C2=O)cn1 [Example 2-18]
16,978 nM,CCCCN(C)C(=O)c1ccc(O[C@@H]2CCN(c3cc(F)c4c(c3)C(=O)CC4)C2=O)cn1 [Example 3-06]
17,95 nM,O=C1CCc2c(F)cc(N3CC[C@@H](Oc4ccc(OCC5CCOC5)nc4)C3=O)cc21 (stereo partly drawn) [Example 2-75]
18,87 nM,O=C1CCc2c(F)cc(N3CC[C@@H](Oc4ccc(Oc5ccc(F)cc5)nc4)C3=O)cc21 [Example 1-07]
19,2220 nM,CN1CCC[C@H]1COc1ccc(O[C@@H]2CCN(c3cc(F)c4c(c3)C(=O)CC4)C2=O)cn1 [Example 2-59]
20,72 nM,CC(C)Oc1cc(O[C@@H]2CCN(c3cc(F)c4c(c3)C(=O)CC4)C2=O)ccn1 [Example 5-08]
21,26 nM,O=C1CCc2c(F)cc(N3CC[C@@H](Oc4ccc(OCC(F)F)nc4)C3=O)cc21 [Example 2-35]

row,EC50,Structure (SMILES)
1,2380 nM,O=C1CCc2c(F)cc(N3CC[C@@H](Oc4ccc(OCCCCCO)nc4)C3=O)cc21 [Example 2-65]
2,18 nM,CCCC(C)Oc1ccc(O[C@@H]2CCN(c3cc(F)c4c(c3)C(=O)CC4)C2=O)cn1 (stereo partly drawn) [Example 2-06]
3,274 nM,O=C1CCc2ccc(N3CC[C@@H](Oc4ccc(Oc5ccc(F)cc5)nc4)C3=O)cc21 [Example 1-06]
4,9 nM,CC(C)CCOc1ccc(O[C@@H]2CCN(c3cc(F)c4c(c3)C(=O)CC4)C2=O)cn1 [Example 2-22]
5,327 nM,O=C1CCc2ccc(N3CC[C@@H](Oc4ccc(OCC5CC5)nc4)C3=O)cc21 [Example 1-12]
6,68 nM,COC(C)(C)CCOc1ccc(O[C@@H]2CCN(c3cc(F)c4c(c3)C(=O)CC4)C2=O)cn1 [Example 2-62]
7,15000 nM,O=C1CCc2c(F)cc(N3CC[C@@H](Oc4ccc(OCCN5CCCC5)nc4)C3=O)cc21 [Example 2-67]
8,22 nM,O=C1CCc2c(F)cc(N3CC[C@@H](Oc4ccnc(OCCC5CC5)c4)C3=O)cc21 [Example 5-01]
9,16 nM,O=C1CCc2c(F)cc(N3CC[C@@H](Oc4ccc(OC5CCCCC5)nc4)C3=O)cc21 [Example 2-66]
10,1470 nM,O=C1CCc2c(F)cc(N3CC[C@@H](Oc4ccc(OCc5cccnc5)nc4)C3=O)cc21 [Example 2-31]
11,65 nM,CCCOc1cc(O[C@@H]2CCN(c3cc(F)c4c(c3)C(=O)CC4)C2=O)ccn1 [Example 5-05]
12,126 nM,COCCCOc1cc(O[C@@H]2CCN(c3cc(F)c4c(c3)C(=O)CC4)C2=O)ccn1 [Example 5-09]
13,11 nM,CCCCSc1ccc(O[C@@H]2CCN(c3cc(F)c4c(c3)C(=O)CC4)C2=O)cn1 [Example 3-07]
14,40 nM,O=C1CCc2c(F)cc(N3CC[C@@H](Oc4ccnc(OCC5CC5)c4)C3=O)cc21 [Example 5-03]
15,17 nM,"CCOc1ccc(O[C@@H]2CCN(c3cc(F)c4c(c3)C(=O)CC4)C2=O)cn1 [Example 2-08, (R)-3-(6-Ethoxy-pyridin-3-yloxy)-1-(7-fluoro-3-oxo-indan-5-yl)-pyrrolidin-2-one]"
16,12 nM,CCC(C)Oc1ccc(O[C@@H]2CCN(c3cc(F)c4c(c3)C(=O)CC4)C2=O)cn1 (stereo partly drawn) [Example 2-14]
17,46 nM,O=C1CCc2c(F)cc(N3CC[C@@H](Oc4ccc(OC(CF)CF)nc4)C3=O)cc21 [Example 2-44]
18,16 nM,CCCCCOc1ccc(O[C@@H]2CCN(c3cc(F)c4c(c3)C(=O)CC4)C2=O)cn1 [Example 2-17]
19,45 nM,CCOc1ncc(O[C@@H]2CCN(c3cc(F)c4c(c3)C(=O)CC4)C2=O)cc1F [Example 3-18]
20,64 nM,O=C1CCc2c(F)cc(N3CC[C@@H](Oc4ccc(OC5CCCOC5)nc4)C3=O)cc21 (stereo partly drawn) [Example 2-79]
21,258 nM,O=C1CCc2c(F)cc(N3CC[C@H](Oc4ccc(OCCC5CC5)nc4)C3=O)cc21 [Example 3-11]

row,EC50,Structure (SMILES)
1,3180 nM,O=C1CCc2c(F)cc(N3CC[C@@H](Oc4ccc(C(=O)N5CCCC5)nc4)C3=O)cc21 [Example 3-05]
2,64 nM,O=C1CCc2c(Cl)cc(N3CC[C@@H](Oc4ccc(OCC5CC5)nc4)C3=O)cc21 [Example 4-01]
3,558 nM,CCCC[S+]([O-])c1ccc(O[C@@H]2CCN(c3cc(F)c4c(c3)C(=O)CC4)C2=O)cn1 (stereo partly drawn) [Example 3-08]
4,15 nM,O=C1CCc2c(F)cc(N3CC[C@@H](Oc4ccc(OCCCF)nc4)C3=O)cc21 [Example 2-61]
5,19 nM,O=C1CCc2c(F)cc(N3CC[C@@H](Oc4ccc(OCC5CC5)nc4)C3=O)c(F)c21 [Example 9-01]
6,54 nM,CCC(CC)Oc1ccc(O[C@@H]2CCN(c3cc(F)c4c(c3)C(=O)CC4)C2=O)cn1 [Example 2-64]
7,64 nM,O=C1CCc2c(F)cc(N3CC[C@@H](Oc4ccc(OCCF)nc4)C3=O)cc21 [Example 2-48]
8,44 nM,O=C1CCc2c(F)cc(N3CC[C@@H](Oc4ccc(OCC(F)(F)F)nc4)C3=O)cc21 [Example 2-77]
9,37 nM,CC(C)C(C)Oc1ccc(O[C@@H]2CCN(c3cc(F)c4c(c3)C(=O)CC4)C2=O)cn1 (stereo partly drawn) [Example 2-46]
10,159 nM,O=C1CCc2c(F)cc(N3CC[C@@H](Oc4ccc(OCC5CCCOC5)nc4)C3=O)cc21 (stereo partly drawn) [Example 2-73]
11,360 nM,Cc1cc(COc2ccc(O[C@@H]3CCN(c4cc(F)c5c(c4)C(=O)CC5)C3=O)cn2)no1 [Example 2-41]
12,103 nM,O=C1CCc2c(F)cc(N3CC[C@@H](Oc4ccc(OCC5COCO5)nc4)C3=O)cc21 (stereo partly drawn) [Example 2-32]
13,33 nM,CC(C)=CCOc1ccc(O[C@@H]2CCN(c3cc(F)c4c(c3)C(=O)CC4)C2=O)cn1 [Example 2-20]
14,63 nM,O=C1CCc2c(F)cc(N3CC[C@@H](Oc4ccc(OC5CCOC5)nc4)C3=O)cc21 (stereo partly drawn) [Example 2-03]
15,242 nM,N#Cc1cc(O[C@@H]2CCN(c3cc(F)c4c(c3)C(=O)CC4)C2=O)cnc1OCC1CC1 [Example 8-05]
16,90 nM,O=C1CCc2c(F)cc(N3CC[C@@H](Oc4ccc(O[C@H]5CCOC5)nc4)C3=O)cc21 [Example 2-68]
17,18 nM,O=C1CCc2c(F)cc(N3CC[C@@H](Oc4ccc(OCCC(F)(F)F)nc4)C3=O)cc21 [Example 2-39]
18,11 nM,CC1CC1COc1ccc(O[C@@H]2CCN(c3cc(F)c4c(c3)C(=O)CC4)C2=O)cn1 (stereo partly drawn) [Example 2-26]
19,1190 nM,O=C1CCc2c(F)cc(N3CC[C@@H](Oc4ccc(OCc5cnccn5)nc4)C3=O)cc21 [Example 2-52]
20,97 nM,N#Cc1cc(N2CC[C@@H](Oc3ccc(OCC4CC4)nc3)C2=O)cc2c1CCC2=O [Example 4-03]
21,281 nM,O=C1CCc2c(F)cc(N3CC[C@H](Oc4ccc(OCC5CC5)nc4)C3=O)cc21 [Example 3-12]
